Laboratory results from US8853246B2 (Dow AgroSciences LLC, priority 2009, dated 2014).
Read-outs that look alike come from different tables or passages of the source.

How the values were obtained:
[1] = system: Green Peach Aphid (Myzus Persicae); test: Insecticidal test for green peach aphid in foliar spray assay (col. MYZUPE); type: in vivo; details: Myzus persicae, 72 h, read-out: MYZUPE 200 ppm (Corrected % Control, rating)
Method in brief: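 Cabbage seedlings with 2-3 true leaves, infested with 20-50 wingless adult and nymph aphids one day earlier, sprayed to runoff at 200 ppm (acetone/methanol stock diluted in 0.025% Tween 20), four pots per treatment. After 3 days at ~25 °C, 40% RH, live aphids counted; corrected % control versus solvent-sprayed plants.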

[2] = system: Cotton Aphid (Aphis Gossypii); test: Insecticidal test for cotton aphid in foliar spray assay (col. APHIGO); type: in vivo; details: Aphis gossypii, 72 h, read-out: APHIGO 200 ppm (Corrected % Control, rating)
Description: The compounds were tested against cotton aphid, green peach aphid, and sweet potato whitefly using procedures described in the following examples and reported in Table 2.
In each case of Table 2, the rating scale is as follows at 200 ppm.
Insecticidal Test for Cotton Aphid (Aphis Gossypii) in Foliar Spray Assay
Squash or cotton seedlings with fully expanded cotyledon leaves were trimmed to one cotyledon per plant and infested with cotton aphid (wingless adult and nymph) one day prior to chemical application. Each plant was examined before chemical application to ensure uniform infestation (ca. 30-70 aphids per plant). Compounds (2 mg) were dissolved in 2 mL of acetone/methanol (1:1) solvent, forming stock solutions of 1000 ppm. The stock solutions were diluted 5× with 0.025% Tween 20 in H2O to obtain a solution at 200 ppm. A hand-held Devilbiss aspirator type sprayer was used to apply the spray solutions until runoff to both sides of the squash cotyledon leaves. Four plants (4 replications) were used for each concentration of each compound. Reference plants (solvent check) were sprayed with the diluent only. Treated plants were held in a holding room for three days at approximately 25° C. and 40% RH before the number of live aphids on each plant was recorded. Insecticidal activity was measured by Corrected % Control using Abbott's correction formula and presented in Table 2 (see col. “APHIGO”): Corrected % Control=100*(X−Y)/X • where X=No. of live aphids on solvent check plants • Y=No. of live aphids on treated plants

[3] = system: Sweetpotato Whitefly-Crawler (Bemisia Tabaci); test: Insecticidal test for sweetpotato whitefly-crawler in foliar spray assay (col. BEMITA); type: in vivo; details: Bemisia tabaci, read-out: BEMITA 200 ppm (Corrected % Control, rating)
Method in brief: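 Cotton plants (one 3-5 cm true leaf) infested with whitefly eggs (100-300/plant), held 5-6 days at 82° F, 50% RH until crawlers developed. Sprayed to runoff at 200 ppm (acetone stock diluted in 0.025% Tween 20), four plants per treatment. Live nymphs counted after 8-9 days; % control by Abbott's correction versus solvent check.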

Compound	pest or weed control at 200 ppm ([1]; green peach aphid)	pest or weed control at 200 ppm [2]	pest or weed control at 200 ppm ([3]; sweetpotato whitefly-crawler)	melting point	pest or weed control at 200 ppm ([1]; Abbott's correction formula)	pest or weed control at 200 ppm ([3]; Abbott's correction formula)
CCN(C(=O)C(C)CSC)c1sc(-c2cncc(F)c2)nc1Cl (stereo not drawn) [Compound 279]	80 to 100%	80 to 100%	80 to 100%	–	–	–
CC(C)(C)OC(=O)N(C(=O)OC(C)(C)C)c1cnc(-c2cccnc2)s1 [Compound 422]	80 to 100%	–	< 80%	114 to 117 °C	–	–
CN(C(=O)CC[S+](C)[O-])c1sc(-c2cncnc2)nc1Cl (stereo not drawn) [Compound 510]	–	–	–	137 to 140 °C	80 to 100%	80 to 100%
CC(C)(C)OC(=O)N(C(=O)OC(C)(C)C)c1sc(-c2cncc(F)c2)nc1Cl [Compound 352]	80 to 100%	–	< 80%	125 to 128 °C	–	–
Cc1nc(-c2cccnc2)sc1NC(=O)CCS(C)(=O)=O [Compound 100]	80 to 100%	–	< 80%	222 to 224 °C	–	–
CC(CS(C)(=O)=O)C(=O)N(C)c1sc(-c2cncc(F)c2)nc1Cl (stereo not drawn) [Compound 271]	80 to 100%	–	80 to 100%	151 to 154 °C	–	–
CS(=O)(=O)CCC(=O)Nc1sc(-c2cncc(F)c2)nc1Cl [Compound 459]	–	–	–	239 to 240 °C	80 to 100%	< 80%
CS[C@H]1CC1C(=O)N(C)c1sc(-c2cncc(F)c2)nc1C (stereo partly drawn) [Compound 216]	80 to 100%	–	80 to 100%	88 to 90 °C	–	–
COc1ncc(-c2nc(Cl)c(N(C)C(=O)CCSC)s2)cc1F [Compound 551]	–	–	–	92 to 94 °C	< 80%	< 80%
CSCCOC(=O)Nc1sc(-c2cccnc2)nc1C [Compound 181]	80 to 100%	–	< 80%	123 to 126 °C	–	–
CN(C(=O)C(C)(C)C)c1cnc(-c2cncc(F)c2)s1 [Compound 33]	< 80%	–	80 to 100%	153 to 155 °C	–	–
Cc1nc(-c2cncc(F)c2)sc1NC(=O)C(C)(C)C[S+](C)[O-] (stereo not drawn) [Compound 143]	80 to 100%	–	< 80%	160 to 163 °C	–	–
Cc1nc(-c2cccnc2)sc1NC(=O)C(C)CS(C)(=O)=O (stereo not drawn) [Compound 99]	80 to 100%	–	80 to 100%	175 to 180 °C	–	–
CSCC(C)(C)C(=O)N(C)c1sc(-c2cccnc2)nc1Cl [Compound 264]	80 to 100%	–	80 to 100%	103 to 106 °C	–	–
CC(C[S+](C)[O-])C(=O)N(C)c1cnc(-c2cncc(F)c2)s1 (stereo not drawn) [Compound 81]	80 to 100%	–	80 to 100%	68 to 70 °C	–	–
COCC(C)(C)OC(=O)Nc1sc(-c2cccnc2)nc1C [Compound 199]	80 to 100%	–	80 to 100%	120 to 123 °C	–	–
COCC(C)OC(=O)Nc1sc(-c2cccnc2)nc1C (stereo not drawn) [Compound 325]	80 to 100%	–	80 to 100%	106 to 111 °C	–	–
CSCCCC(=O)Nc1sc(-c2cccnc2)nc1C [Compound 374]	80 to 100%	–	80 to 100%	110 to 112 °C	–	–
CN(C(=O)C(C)(C)C[S+](C)[O-])c1cnc(-c2cccnc2)s1 (stereo not drawn) [Compound 80]	80 to 100%	–	80 to 100%	118 to 122 °C	–	–
CSCCC(=O)Nc1sc(-c2cccnc2)nc1C(F)(F)F [Compound 133]	80 to 100%	–	< 80%	131 to 133 °C	–	–
CC(C)C(=O)N(C)c1sc(-c2cncc(F)c2)nc1Cl [Compound 263]	80 to 100%	–	80 to 100%	123 to 125 °C	–	–
Cc1nc(-c2cccnc2)sc1NC(=O)OC1CCCCC1 [Compound 375]	< 80%	–	< 80%	163 to 167 °C	–	–

Compound	pest or weed control at 200 ppm ([1]; green peach aphid)	pest or weed control at 200 ppm [2]	pest or weed control at 200 ppm ([3]; sweetpotato whitefly-crawler)	melting point	pest or weed control at 200 ppm ([1]; Abbott's correction formula)	pest or weed control at 200 ppm ([3]; Abbott's correction formula)
C=CCN(C(=O)OC(C)(C)C)c1sc(-c2cccnc2)nc1C [Compound 356]	80 to 100%	–	80 to 100%	72 to 76 °C	–	–
CCOC(=O)c1cncc(-c2nc(C)c(NC(=O)OC(C)(C)C)s2)c1 [Compound 160]	< 80%	–	< 80%	124 to 128 °C	–	–
CSCC(C)C(=O)Nc1sc(-c2cncc(C#N)c2)nc1C (stereo not drawn) [Compound 172]	80 to 100%	–	80 to 100%	127 to 131 °C	–	–
CCSCC(=O)N(C)c1sc(-c2cccnc2)nc1Cl [Compound 370]	80 to 100%	–	80 to 100%	68 to 71 °C	–	–
Cc1nc(-c2cccnc2)sc1NC(=O)Cn1nc(C)c(S(=O)(=O)N(C)C)c1C [Compound 389]	< 80%	–	< 80%	214 to 215 °C	–	–
CSCCC(=O)N(C)c1sc(-c2cncc(F)c2)nc1C#N [Compound 503]	–	–	–	97 to 98 °C	< 80%	< 80%
C=CC[S+]([O-])CC(C)C(=O)Nc1sc(-c2cccnc2)nc1C (stereo not drawn) [Compound 225]	80 to 100%	–	80 to 100%	147 to 149 °C	–	–
CSCCC(=O)Nc1sc(-c2cncc(F)c2)nc1Br [Compound 298]	80 to 100%	–	< 80%	160 to 163 °C	–	–
Cc1nc(-c2cccnc2)sc1NC(=O)OCC(F)(F)F [Compound 380]	< 80%	–	< 80%	170 to 178 °C	–	–
CCc1cc(C(=O)Nc2sc(-c3cccnc3)nc2C)no1 [Compound 387]	< 80%	–	80 to 100%	129 to 130 °C	–	–
Cc1nc(-c2cncc(F)c2)sc1NC(=O)C(C)(C)CS(C)(=O)=O [Compound 144]	80 to 100%	–	< 80%	157 to 167 °C	–	–
COC(=O)CCC(=O)N(C)c1cnc(-c2cccnc2)s1 [Compound 27]	80 to 100%	–	< 80%	127 to 129 °C	–	–
CC(C)C(=O)Nc1sc(-c2cccnc2)nc1C(F)(F)F [Compound 136]	80 to 100%	–	< 80%	130 to 131 °C	–	–
CS[C@H]1CC1C(=O)Nc1sc(-c2cncc(F)c2)nc1C (stereo partly drawn) [Compound 220]	80 to 100%	–	80 to 100%	206 to 212 °C	–	–
Cc1nc(-c2cccnc2)sc1N(C)C(=S)NC(C)C [Compound 386]	80 to 100%	–	80 to 100%	163 to 164 °C	–	–
Cc1nc(-c2cncc(F)c2)sc1N(C)C(=O)C(C)C [Compound 41]	80 to 100%	–	80 to 100%	123 °C	–	–
Cc1nc(-c2cncc(F)c2)sc1N(C)C(=S)NC1CC1 [Compound 519, 3-cyclopropyl-1-[2-(5-fluoro-pyridin-3-yl)-4-methyl-thiazol-5-yl]-1-methyl-thiourea]	–	–	–	117 to 119 °C	80 to 100%	< 80%
CCN(C(=O)c1cc(Cl)cc(Cl)c1)c1sc(-c2cccnc2)nc1Cl [Compound 564]	–	–	–	172 to 174 °C	< 80%	< 80%
Cc1nc(-c2ccc(Cl)nc2)sc1NC(=O)OC(C)(C)C [Compound 149]	< 80%	–	< 80%	154 to 157 °C	–	–
CCN(C(=O)CCSC)c1cnc(-c2cncc(F)c2)s1 [Compound 308]	80 to 100%	–	80 to 100%	78 to 81 °C	–	–
CC(=O)Nc1sc(-c2cccnc2)nc1C [Compound 186]	< 80%	–	< 80%	180 to 182 °C	–	–
